According to patent publication US8362018B2, “Substituted imidazo[1,2-a]pyrazine compounds useful for the treatment of viral infections” (Biofocus DPI, Ltd., priority 2007, dated 2013):

Legend:
HCV replicon = experiment: anti-viral assay (EC50), Table 13; format: cell-based; conditions: Hepatitis C virus, anti-viral assays
Excerpt: The ability of a compound to inhibit HCV replication can be measured in vitro or using animal models using models and assays well known to those of skill in the art (e.g. Pietschmann et al, Clin Liver Dis. 7(1)c23-43, 2003). In vitro techniques for measuring the ability of a compound to inhibit HCV replication involve using HCV or an HCV replicon. Because HCV is difficult to grow in culture, particular in vitro techniques employ an HCV replicon.
An HCV replicon is an RNA molecule able to autonomously replicate in a cultured cell, such as Huh7. The HCV replicon expresses the HCV derived components of the replication machinery and contains cis-elements required for replication in a cultured cell. […]

[1] = cytotoxicity measurement (CC50), Table 13; format: cell-based; conditions: human, Huh7 cells

Compound | EC50 (HCV replicon) [µM] | CC50 [1] [µM]
NS(=O)(=O)c1ccc(CNc2nc(-c3ccc(O)cc3)cn3c(-c4ccc(O)cc4)cnc23)cc1 [Compound 114, 4-{[3,6-Bis-(4-hydroxy-phenyl)-imidazo[1,2-a]pyrazin-8-ylamino]-methyl}-benzenesulfonamide] | < 1 | < 35
NS(=O)(=O)c1ccc(CNc2nccn3c(-c4ccc(O)cc4F)cnc23)cc1 [Compound 91, 4-{[3-(2-Fluoro-4-hydroxy-phenyl)-imidazo[1,2-a]pyrazin-8-ylamino]-methyl}-benzenesulfonamide] | < 1 | > 35
COc1ccc(CNc2nccn3c(-c4cccc(NS(C)(=O)=O)c4)cnc23)cc1 [Compound 83] | 1 to 20 | < 35
NS(=O)(=O)c1ccc(CNc2nccn3c(-c4cccc(F)c4)cnc23)cc1 [Compound 67] | 1 to 20 | < 35
CC(C)(C)c1ccc(CNc2nccn3c(-c4ccc(O)cc4)cnc23)cc1 [Compound 98] | 1 to 20 | < 35
COc1ccc(CNc2nccn3c(-c4ccc(O)cc4)cnc23)cc1 [Compound 40] | 1 to 20 | > 35
NS(=O)(=O)c1ccc(CNc2nccn3c(-c4ccc(O)c(O)c4)cnc23)cc1 [Compound 89] | > 20 | > 35
COc1cc(-c2cnc3c(NCc4ccc(S(N)(=O)=O)cc4)nccn23)cc(Cl)c1O [Compound 31] | 1 to 20 | > 35
COc1ccc(-c2cnc3c(NCc4cccnc4)nccn23)cc1OC [Compound 7] | 1 to 20 | > 35
NS(=O)(=O)c1ccc(CNc2nccn3c(-c4ccc(O)c(F)c4)cnc23)cc1 [Compound 25] | < 1 | > 35
Oc1ccc(-c2cnc3c(NCc4ccc(C(F)(F)F)cc4)nccn23)cc1 [Compound 39] | 1 to 20 | < 35
CCNS(=O)(=O)c1ccc(CNc2nccn3c(-c4ccc(O)cc4)cnc23)cc1 [Compound 102] | 1 to 20 | > 35
COc1ccc(-c2cnc3c(NCc4ccc(Cl)cc4)nccn23)cc1OC [Compound 97] | 1 to 20 | < 35
Oc1ccc(Nc2nccn3c(-c4cccc(F)c4)cnc23)cc1 [Compound 82] | 1 to 20 | < 35
COc1ccc(-c2cnc3c(NCc4ccc(C(=O)O)cc4)nccn23)cc1OC [Compound 92, 4-{[3-(3,4-Dimethoxy-phenyl)-imidazo[1,2-a]pyrazin-8-ylamino]-methyl}-benzoic acid] | 1 to 20 | > 35
CS(=O)(=O)c1ccc(CNc2nccn3c(-c4ccc(O)cc4)cnc23)cc1 [Compound 32] | 1 to 20 | > 35
OCc1ccc(-c2cnc3c(NCCc4ccncc4)nccn23)cc1 [Compound 3] | > 20 | > 35
NS(=O)(=O)c1ccc(CNc2nc(Br)cn3c(Br)cnc23)cc1 [Compound 113, 4-[(3,6-Dibromo-imidazo[1,2-a]pyrazin-8-ylamino)-methyl]-benzenesulfonamide] | > 20 | > 35
NS(=O)(=O)c1ccc(CNc2nccn3c(-c4ccc(F)c(Cl)c4)cnc23)cc1 [Compound 10] | 1 to 20 | > 35
Oc1cccc(-c2cnc3c(NCc4ccncc4)nccn23)c1 [Compound 6] | 1 to 20 | > 35
Oc1ccc(-c2cnc3c(NCc4ccccc4)nccn23)cc1 [Compound 24] | 1 to 20 | < 35
Cc1cc(-c2cnc3c(NCc4ccc(S(N)(=O)=O)cc4)nccn23)cc(C)c1O [Compound 41] | 1 to 20 | < 35
NS(=O)(=O)c1ccc(CNc2nccn3c(-c4cccc(O)c4)cnc23)cc1 [Compound 65] | 1 to 20 | < 35
Oc1ccc(-c2cnc3c(NCc4cccnc4)nccn23)cc1 [Compound 58] | 1 to 20 | < 35

Compound | EC50 (HCV replicon) [µM] | CC50 [1] [µM]
CS(=O)(=O)Nc1cccc(-c2cnc3c(NCc4ccc5c(c4)OCO5)nccn23)c1 [Compound 73] | 1 to 20 | < 35
COc1ccccc1-c1cnc2c(NCc3ccc(S(N)(=O)=O)cc3)nccn12 [Compound 86] | 1 to 20 | < 35
COc1ccc(-c2cnc3c(NCc4ccccc4)nccn23)cc1OC [Compound 14] | 1 to 20 | > 35
Cc1cccc(CNc2nccn3c(-c4ccc(O)cc4)cnc23)c1 [Compound 35] | 1 to 20 | < 35
COc1ccc(-c2cnc3c(NCc4ccc(NS(C)(=O)=O)cc4)nccn23)cc1OC [Compound 22] | 1 to 20 | > 35
COc1cc(-c2cnc3c(NCc4cccc(S(N)(=O)=O)c4)nccn23)ccc1O [Compound 56] | < 1 | < 35
Cc1cn2c(-c3ccc(O)cc3)cnc2c(NCc2ccc(S(N)(=O)=O)cc2)n1 [Compound 110, 4-{[3-(4-Hydroxy-phenyl)-6-methyl-imidazo[1,2-a]pyrazin-8-ylamino]-methyl}-benzenesulfonamide] | < 1 | < 35
CS(=O)(=O)Nc1ccc(-c2cnc3c(NCc4ccc(S(N)(=O)=O)cc4)nccn23)cc1 [Compound 28] | > 20 | > 35
COCCCNc1nccn2c(-c3ccc(OC)c(OC)c3)cnc12 [Compound 78] | 1 to 20 | < 35
CS(=O)(=O)Nc1cccc(-c2cnc3c(NCc4cccnc4)nccn23)c1 [Compound 77] | 1 to 20 | < 35
COc1ccc(-c2cnc3c(NCCNC(C)=O)nccn23)cc1OC [Compound 26] | 1 to 20 | > 35
Oc1ccc(-c2cnc3c(NCCc4ccncc4)nccn23)cc1 [Compound 2] | 1 to 20 | < 35
COc1ccc(-c2cnc3c(NCc4ccc(CO)cc4)nccn23)cc1OC [Compound 93, (4-{[3-(3,4-Dimethoxy-phenyl)-imidazol[1,2-a]pyrazin-8-ylamino]-methyl}-phenyl)-methanol] | 1 to 20 | > 35
COc1ccc(-c2cnc3c(NCc4ccco4)nccn23)cc1OC [Compound 68] | 1 to 20 | < 35
COc1cc(-c2c(C)nc3c(NCc4ccc(S(N)(=O)=O)cc4)nccn23)ccc1O [Compound 105] | < 1 | > 35
CC(C)c1ccc(Nc2nccn3c(-c4cccc(NS(C)(=O)=O)c4)cnc23)cc1 [Compound 70] | 1 to 20 | < 35
OCc1ccc(-c2cnc3c(NCc4ccc(F)cc4)nccn23)cc1 [Compound 79] | 1 to 20 | < 35
CC(=O)c1cccc(-c2cnc3c(NCc4ccc(S(N)(=O)=O)cc4)nccn23)c1 [Compound 18] | 1 to 20 | > 35
COc1ccc(-c2cnc3c(NCc4cccc(Cl)c4)nccn23)cc1 [Compound 44] | 1 to 20 | < 35
O=C(O)c1ccc(CNc2nccn3c(-c4ccc(O)cc4)cnc23)cc1 [Compound 52] | > 20 | > 35
COc1cc(-c2cnc3c(NCc4ccc(S(N)(=O)=O)cc4)nccn23)ccc1O [Compound 20] | < 1 | < 35
COc1cccc(-c2cnc3c(NCc4ccc(S(N)(=O)=O)cc4)nccn23)c1 [Compound 12] | 1 to 20 | > 35
Oc1ccc(-c2cnc3c(Nc4ccccc4)nccn23)cc1 [Compound 96] | > 20 | > 35
